Each structure is given as a SMILES string.

These results are taken from patent US20130023575A1, “COMPOSITIONS AND METHODS FOR THE TREATMENT OF OCULAR SURFACE ALLERGIES” (priority 2011, published 2013).

The data set in a line: bromfenac in solution in the flowable mucoadhesive polymer carrier. It counts as physicochemical. To be noted: by weight of the composition. The source says:
As used herein the term “retained in or carried with” or “retaining or carrying” embraces generally all ways that bromfenac can be associated with the flowable mucoadhesive polymer. For example, bromfenac can be in aqueous solution dispersed throughout the polymer. A bromfenac concentration of up to about 0.36% will be in solution mixed with or dispersed throughout the flowable mucoadhesive polymer carrier. Bromfenac can also be in suspension with the polymer depending on its concentration. For example, when bromfenac is used in an amount more than about 0.36% by weight of the composition, some of the bromfenac can be in suspension with the polymer carrier while an amount of up to about […] of bromfenac will still be in solution and mixed with the polymer carrier.

For `Nc1c(CC(=O)O)cccc1C(=O)c1ccc(Br)cc1` [bromfenac], the “bromfenac concentration in solution mixed with or dispersed throughout the polymer carrier” value is reported as “up to 0.36%”.
